US5288720A, “Angiotensin II receptor blocking 2,3,6 substituted quinazolinones” (American Cyanamid Company, priority 1993, dated 1994)

Legend:
Angiotensin II Receptor = biological target: T1, Angiotensin II Receptor (Bos taurus, UniProt P25104); assay: Receptor Binding Assay: Binding of [^125 I](Sar^1,Ile^8)AngII to beef adrenal cortex membranes; settings: 60 min, room temperature
T1 construct: The brownish tissue forming the adrenal cortex is scraped off and finely minced with scissors before homogenization; from tissue; host or cells: beef adrenal cortex, microsomal membranes (100,000×g pellet); fresh glands from a local slaughter house (Maxwell-Cohen)
T1 sequence (P25104 1-359): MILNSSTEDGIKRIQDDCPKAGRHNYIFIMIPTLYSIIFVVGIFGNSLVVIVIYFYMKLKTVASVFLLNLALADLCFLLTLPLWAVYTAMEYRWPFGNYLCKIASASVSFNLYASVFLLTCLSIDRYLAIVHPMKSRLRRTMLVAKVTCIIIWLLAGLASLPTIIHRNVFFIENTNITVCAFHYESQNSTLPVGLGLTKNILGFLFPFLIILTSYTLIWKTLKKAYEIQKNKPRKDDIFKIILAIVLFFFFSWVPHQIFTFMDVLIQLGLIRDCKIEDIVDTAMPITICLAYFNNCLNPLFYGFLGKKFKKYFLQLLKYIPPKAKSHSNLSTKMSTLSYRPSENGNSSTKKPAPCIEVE
Source text: Beef adrenals are obtained from a local slaughter house (Maxwell-Cohen). [^125 […]. 2200 Ci/mmole, is purchased from Dupont (NEN®, Boston, Mass.). All unlabeled AngII analogs, Dimethylsulfoxide (DMSO), nucleotides, bovine serum albumin (BSA) are purchased from Sigma Chemical Co., St. Louis, Mo. U.S.A. […] Approximately sixteen (16) to twenty (20) beef adrenal glands are processed as follows: fresh adrenal glands received on crushed ice are cleaned of fatty tissues and the tough membranes encapsulating the glands are removed and discarded. The brownish tissue forming the adrenal cortex is scraped off and finely minced with scissors before homogenization. Care is taken to avoid contamination with medullary tissue during dissection. The scraped cortices are suspended in twenty volumes of an ice-cold buffer medium consisting of 10 mM Tris.HCl (pH 7.4 at 22° C.) and containing 1.0 mM EDTA and 0.2M sucrose. Unless otherwise indicated, all subsequent operations are done at 4° C. […] The homogenate is centrifuged first at low speed (3,000×g) for 10 minutes. […] This P2 pellet is discarded and the liquid phase is carefully decanted off in clean centrifuge tubes and recentrifuged at high speed (100,000×g) for 60 minutes. The translucent final pellet is harvested and combined in a small volume (20-50.0 ml) of 50.0 mM Tris.HCl buffer, pH 7.2. A 100 ul aliquot is withdrawn and the protein content of the preparation is determined by the Lowry's method (Lowry, O. H., Rosebrough, […]. and Randall, R. J., Protein measurement with Folin phenol reagent. J. Biol. Chem., […], 265-275, 1951). The pelleted membrane is reconstituted in 50.0 mM Tris.HCl buffer containing 0.1 mM of phenylmethylsulfonyl fluoride (PMSF) to give approximately a protein concentration of 2.5 mg per ml of tissue suspension. […] Receptor Binding Assay: […] In competition studies, experimental compounds are diluted in dimethylsulfoxide (DMSO) and added in 20 ul to wells before the introduction of tissue membranes. […] Assays are performed in triplicate. The wells are left undisturbed for 60 minutes at room temperature. Following incubation, all wells are harvested at once with a Brandel® Harvester especially designed for a 96 well plate (Brandel® Biomedical Research & Development Labs. Inc., Gaithersburg, Md., U.S.A.). The filter discs are washed with 10×1.0 ml of cold 0.9% NaCl to remove unbound ligand. Presoaking the filter sheet in 0.1% polyethyleneimine in normal saline (PEI/Saline) greatly reduces the radioactivity retained by the filter blanks. This method is routinely used. The filters are removed from the filter grid and counted in a Parkard® Cobra Gamma Counter for 1 minutes. (Packard Instrument Co., Downers Grove, Ill, U.S.A.). The binding data are analyzed by the non-linear interactive "LUNDON-1" program (LUNDON SOFTWARE Inc., Cleveland, Ohio U.S.A.).

[1] = system: ANGIOTENSIN II VASOPRESSOR RESPONSE; assay: AII Challenge: blockade of angiotensin II vasopressor response in conscious SHR; assay type: in vivo, rat (Conscious Male Okamoto-Aoki SHR); settings: SHR n=2, 3 mg/kg i.v.
Source text: By administering a compound of this invention to a rat, and then challenging with angiotensin II, a blockage of the vasopressor response is realized.
Conscious Male Okamoto-Aoki SHR, 16-20 weeks old, weighing approximately 330 g are purchased from Charles River Labs (Wilmington, Mass.). Conscious rats are restrained in a supine position with elastic tape. The area at the base of the tail is locally anesthetized by subcutaneous infiltration with 2% procaine. The ventral caudal artery and vein are isolated, and a cannula made of polyethylene (PE) 10-20 tubing (fused together by heat) is passed into the lower abdominal aorta and vena cava, respectively. The cannula is secured, heparinized (1,000 I.U./ml), sealed and the wound is closed. The animals are placed in plastic restraining cages in an upright position. The cannula is attached to a Statham P23Db pressure transducer, and pulsatile blood pressure is recorded to 10-15 minutes with a Gould Brush recorder. (Chan et al., (Drug Development Res., 18:75-94, 1989).
Angiotensin II (human sequence, Sigma Chem. Co., St. Louis, MO) of 0.05 and 0.1 ug/kg i.v. is injected into all rats (predosing response). Then a test compound, vehicle or a known angiotensin II antagonist is administered i.v., i.p. or orally to each set of rats. The two doses of angiotensin II are given to each rat again at 30, 60, 90, 120, 180, 240 and 300 minutes post dosing the compound or vehicle. The vasopressor response of angiotensin II is measured for the increase in systolic blood pressure in mmHg. The percentage of antagonism or blockade of the vasopressor response of angiotensin II by a compound is calculated using the vasopressor response (increase in systolic blood pressure) of angiotensin II of each rat predosing the compound as 100%. A compound is considered active if at 30 mg/kg i.v. it antagonized at least 50% of the response.

[2] = AII 0.05 mcg/kg IV, 30 min post dose
[3] = AII 0.05 mcg/kg IV, 60 min post dose
[4] = AII 0.05 mcg/kg IV, 90 min post dose
[5] = AII 0.05 mcg/kg IV, 120 min post dose
[6] = AII 0.05 mcg/kg IV, 180 min post dose
[7] = AII 0.05 mcg/kg IV, 240 min post dose
[8] = AII 0.05 mcg/kg IV, 300 min post dose
[9] = AII 0.1 mcg/kg IV, 30 min post dose
[10] = AII 0.1 mcg/kg IV, 60 min post dose
[11] = AII 0.1 mcg/kg IV, 90 min post dose
[12] = AII 0.1 mcg/kg IV, 120 min post dose
[13] = AII 0.1 mcg/kg IV, 180 min post dose
[14] = AII 0.1 mcg/kg IV, 240 min post dose
[15] = AII 0.1 mcg/kg IV, 300 min post dose

Row | SMILES | IC50 (Angiotensin II Receptor) | % Inhibition of AII vasopressor response [1, 2] | Average Change (systolic blood pressure response to AII) [1, 2] | % Inhibition of AII vasopressor response [1, 3] | Average Change (systolic blood pressure response to AII) [1, 3] | % Inhibition of AII vasopressor response [1, 4] | Average Change (systolic blood pressure response to AII) [1, 4] | % Inhibition of AII vasopressor response [1, 5] | Average Change (systolic blood pressure response to AII) [1, 5] | % Inhibition of AII vasopressor response [1, 6] | Average Change (systolic blood pressure response to AII) [1, 6] | % Inhibition of AII vasopressor response [1, 7] | Average Change (systolic blood pressure response to AII) [1, 7] | % Inhibition of AII vasopressor response [1, 8] | Average Change (systolic blood pressure response to AII) [1, 8] | % Inhibition of AII vasopressor response [1, 9] | Average Change (systolic blood pressure response to AII) [1, 9] | % Inhibition of AII vasopressor response [1, 10] | Average Change (systolic blood pressure response to AII) [1, 10] | % Inhibition of AII vasopressor response [1, 11] | also measured
1 | CCCCc1nc2ccc(C(O)C3CCCS3(=O)=O)cc2c(=O)n1Cc1ccc(-c2ccccc2-c2nn[nH]n2)cc1 (single isomer, unassigned; isomer 2) [Example 16, 2-Butyl-6-[hydroxy(tetrahydro-2-thienyl)methyl-3-[2'-(1H-tetrazol-5-yl)[1,1'biphenyl]-4-yl]methyl]-4(3H)-quinazolinone S, S-dioxide, isomer 2] | 110 nM | 72% | 12.5 mmHg | 30% | 31.5 mmHg | 61% | 17.5 mmHg | 71% | 13 mmHg | 39% | 27.5 mmHg | 39% | 27.5 mmHg | 33% | 30 mmHg | 43% | 20 mmHg | 64% | 12.5 mmHg | 36% | Average Change (systolic blood pressure response to AII) [1, 11]: 22.5 mmHg; % Inhibition of AII vasopressor response [1, 12]: 50%; Average Change (systolic blood pressure response to AII) [1, 12]: 17.5 mmHg; % Inhibition of AII vasopressor response [1, 13]: 14%; Average Change (systolic blood pressure response to AII) [1, 13]: 30 mmHg; % Inhibition of AII vasopressor response [1, 14]: 0%; Average Change (systolic blood pressure response to AII) [1, 14]: 35 mmHg; % Inhibition of AII vasopressor response [1, 15]: -21%; Average Change (systolic blood pressure response to AII) [1, 15]: 42.5 mmHg
2 | CCCCc1nc2ccc(C(C)(O)C3CCN(C)C3=O)cc2c(=O)n1Cc1ccc(-c2ccccc2-c2nn[nH]n2)cc1 (single isomer, unassigned; isomer 2) [Example 48, 2-Butyl-6-1-hydroxy-1(1-methyl-2-oxo-3-pyrrolidinyl)ethyl]-3-[[2'-(1H-tetrazol-5-yl)[1,1'-biphenyl]-4-yl]methyl-4(3H)-quinazolinone isomer 2] | 43 nM | 92% | 3.5 mmHg | 89% | 5 mmHg | 83% | 7.5 mmHg | 97% | 1.5 mmHg | 69% | 13.5 mmHg | 68% | 14 mmHg | 71% | 12.5 mmHg | 95% | 25 mmHg | 100% | 0 mmHg | 95% | Average Change (systolic blood pressure response to AII) [1, 11]: 2.5 mmHg; % Inhibition of AII vasopressor response [1, 12]: 84%; Average Change (systolic blood pressure response to AII) [1, 12]: 8.5 mmHg; % Inhibition of AII vasopressor response [1, 13]: 57%; Average Change (systolic blood pressure response to AII) [1, 13]: 22.5 mmHg; % Inhibition of AII vasopressor response [1, 14]: 52%; % Inhibition of AII vasopressor response [1, 15]: 57%; Average Change (systolic blood pressure response to AII) [1, 15]: 22.5 mmHg
